# Reference: patent US20230159484A1, “FLUORESCENT DYES HAVING HIGH STOKES SHIFT, ON THE BASIS OF BRIDGED BENZOPYRYLIUM SALTS” (DYOMICS GmbH, priority 2020, published 2023)
# Experiments:
# Assay type in all cases: physicochemical
# [1] = Fluorescence emission (emission maximum)
# Protocol: (§1) Depending on the basic structure and substitution, the absorption maxima lie in the entire range of visible light, with a focus at 500-530 nm. The compounds show a high Stokes shift in the range of 80 nm. The absorption is measured, for example, at 25° C. in aqueous or ethanolic solutions with an extinction of 1.0 using a Specord 205 from Analytik Jena, wherein the aqueous solutions are preferably phosphate-buffered salt solutions (PBS buffer; approx. 100 mM sodium chloride and 100 mM total phosphate) and have a pH of 7.5. For example, the emission is measured at 25° C. in dilute aqueous or ethanolic solutions with an extinction of 0.1 using a FP-6600 spectrofluorometer from Jasco, wherein the dilute aqueous solutions are preferably phosphate-buffered salt solutions (PBS buffer; about 100 mM sodium chloride and 100 mM total phosphate) and have a pH of 7.5.
# [2] = UV-Vis absorption (absorption maximum, extinction coefficient)
# Protocol: as §1
# [3] = Fluorescence quantum yield
# Protocol: Preferably, the fluorescence quantum yield of a compound according to the invention is 0.1 to 0.95, more preferably 0.5 to 0.9. Fluorescence quantum yields are preferably determined at 25° C. in dilute aqueous or ethanolic solutions with an extinction of 0.1 using a Hamamatsu Absolute Photoluminescence Quantum Yield Measurement System C-9920, wherein the dilute aqueous solutions are preferably phosphate-buffered salt solutions (PBS buffer; about 100 mM sodium chloride and 100 mM total phosphate) and have a pH of 7.5. The compounds thus complement the already commercially available dyes with high Stokes Shift or represent better fluorescent alternatives.
SMILES,λem ([1]; in PBS) [nm],λem ([1]; in ethanol) [nm],ε ([2]; UV-Vis in PBS),λmax ([2]; UV-Vis in PBS) [nm],ε ([2]; UV-Vis in ethanol),λmax ([2]; UV-Vis in ethanol) [nm],QY ([3]; in PBS),QY ([3]; in ethanol)
"CCN(CC)c1ccc2cc3c([o+]c2c1)C=C(NCCCCCC(=O)O)CC3(C)C.[Cl-] [Compound 3, 6-[[6-(diethylamino)-1,1-dimethyl-2H-xanthene-10-ium-3-yl]amino]hexanoic Acid Chloride Salt]",570,575,"39,200 l/mol*cm",505,"32,500 l/mol*cm",510,0.58,0.82
"CC1(C)CC(NCCCS(=O)(=O)[O-])=Cc2[o+]c3cc(N(CCCCCC(=O)O)CCCS(=O)(=O)[O-])ccc3cc21.[Na+] [Compound 5, 3-[[6-[5-carboxypentyl(3-sulfonatopropyl)amino]-1,1-dimethyl-2H-xanthene-10-ium-3-yl]amino]propane-1-sulfonate Sodium Salt]",572,570,"45,000 l/mol*cm",505,"49,800 l/mol*cm",512,0.72,0.87
"CCN(CCCCCC(=O)O)c1ccc2cc3c([o+]c2c1)C=C(/C=C1\C=CC=CN1)CC3(C)C.[Cl-] [Compound 29, 6-[[8,8-dimethyl-6-[(E)-1H-pyridine-2-ylidenemethyl]-7H-xanthene-10-ium-3-yl]-ethyl-amino]hexanoic Acid Chloride Salt]",,541,,,"24,000 l/mol*cm",434,,
"CCN(CCCCCC(=O)O)c1ccc2cc3c([o+]c2c1)C=C(c1ccc(N(C)C)cc1)CC3(C)C.[Cl-] [Compound 30, 6-[[6-[4-(dimethylamino)phenyl]-8,8-dimethyl-7H-xanthene-10-ium-3-yl]-ethyl-amino]hexanoic Acid Chloride Salt]",,713,,,"30,000 l/mol*cm",664,,
CCN(CC)c1ccc2cc3c([o+]c2c1)C=C(C)CC3(C)C.[Cl-] [Compound 31],,628,,,"9,800 l/mol*cm",538,,
"CCN(CC)c1ccc2cc3c([o+]c2c1)C=C(/C=C/C=C1/N(CCCCCC(=O)O)c2ccc(S(=O)(=O)[O-])cc2C1(C)C)CC3(C)C [Compound 32, (2E)-1-(5-sarboxypentyl)-2-[(E)-3-[6-(diethylamino)-1,1-dimethyl-2H-xantheneium-3-yl]prop-2-enyliden]-3,3-dimethyl-indoline-5-sulfonate]",788,795,75000 L/mol/cm,755,"143,600 l/mol*cm",770,,
"CCN(CC)c1ccc2c(c1)OC1=C/C(=C/C=C3/C(=O)N(CCCCCC(=O)O)C(=O)N(CCCS(=O)(=O)[O-])C3=O)CC(C)(C)C1=C2.[Na+] [Compound 33, 3-[(5Z)-3-(5-carboxypentyl)-5-[(2E)-2-[6-(diethylamino)-1,1-dimethyl-2H-xanthene-3-ylidene]ethylidene]-2,4,6-trioxo-hexahydropyrimidin-1-yl]propane-1-sulfonate Sodium Salt]",,719,,,"67,000 l/mol*cm",683,,
"CCN(CC)c1ccc2c(c1)OC1=CC(=O)CC(C)(C)C1=C2 [Compound 34, 6-(diethylamino)-1,1-dimethyl-2H-xanthene-3-one]",558,540,23000 L/mol/cm,450,"24,800 l/mol*cm",440,,
"CCN(CCCCCC(=O)O)c1ccc2c(c1)OC1=CC(=O)CC(C)(C)C1=C2 [Compound 35, 6-[(8,8-dimethyl-6-oxo-7H-xanthene-3-yl)-ethyl-amino]hexanoic Acid]",559,540,"24,200 l/mol*cm",457,"25,300 l/mol*cm",441,,
"CC1(C)CC(=O)C=C2Oc3cc(N(CCCCCC(=O)O)CCCS(=O)(=O)[O-])ccc3C=C21.[Na+] [Compound 37, 3-[5-carboxypentyl-(8,8-dimethyl-6-oxo-7H-xanthene-3-yl)amino]propane-1-sulfonate Sodium Salt]",553,538,"26,000 l/mol*cm",454,"27,000 l/mol*cm",439,,
"CC1(C)CC(=O)C(S(=O)(=O)[O-])=C2Oc3cc(OCCCCCC(=O)O)ccc3C=C21.[Na+] [Compound 40, 6-(5-carboxypentoxy)-1,1-dimethyl-3-oxo-2H-xanthene-4-sulfonate Sodium Salt]",483,487,"21,000 l/mol*cm",407,"19,500 l/mol*cm",403,,
"CC1=CC(C)(C)N(CCCCCC(=O)O)c2cc3c(cc21)C=C1C(=CC(=O)CC1(C)C)O3 [Compound 41, 6-(2,2,4,7,7-pentamethyl-9-oxo-8H-chromeno[3,2-g]quinolin-1-yl)hexanoic Acid]",575,557,"23,000 l/mol*cm",460,"24,000 l/mol*cm",463,,
"CC1=CC(C)(C)N(CCCCCC(=O)O)c2cc3c(cc21)C=C1C(=C(S(=O)(=O)[O-])C(=O)CC1(C)C)O3.[Na+] [Compound 42, 1-(5-carboxypentyl)-2,2,4,7,7-pentamethyl-9-oxo-8H-chromeno[3,2-g]quinoline-10-sulfonate Sodium Salt]",578,559,"28,000 l/mol*cm",487,"30,000 l/mol*cm",473,,
"CCN(CC)c1ccc2c(c1)OC1=Cc3[o+]c4cc(N(CC)CC)ccc4c(-c4ccccc4C(=O)O)c3C(C)(C)C1=C2.[Cl-] [Compound 46, 2-[3,9-bis(diethylamino)-13,13-dimethyl-chromeno[3,2-b]xanthene-5-ium-14-yl]benzoic Acid Chloride Salt]",711,710,42000 L/mol/cm,663,"60,000 l/mol*cm",664,,
"CCN(CC)c1ccc2cc3c([o+]c2c1)C=C1Oc2cc(N(CC)CCCCCC(=O)O)ccc2C=C1C3(C)C.[Cl-] [Compound 47, 6-[[9-(diethylamino)-13,13-dimethyl-chromeno[3,2-b]xanthene-7-ium-3-yl]-ethyl-amino]hexanoic Acid Chloride Salt]",710,713,37000 L/mol/cm,670,"80,300 l/mol*cm",679,,
"CCN(CCCCCC(=O)O)c1ccc2c(c1)OC1=Cc3[o+]c4cc(OC)ccc4cc3C(C)(C)C1=C2.[Cl-] [Compound 48, 6-[ethyl-(3-methoxy-13,13-dimethyl-chromeno[3,2-b]xanthene-5-ium-9-yl)amino]hexanoic Acid Chloride Salt]",,712,,,"53,000 l/mol*cm",654,,
